Source: patent US6680025B2, “Device and method for photoactivation” (Cerus Corporation, priority 1989, dated 2004)
Marks after values point to notes of the source that are not given here.

Tests used:
[1] = Solubility of photoreactive compounds in 1×TE; format: physicochemical; details: excess compound heated 50-70° C., stirred at room temperature, filtered; optical density
Method: The solubilities of AMIP, AMDMIP, DMIP, MIP and isopsoralen (IP) were determined experimentally according to the scheme set forth in FIG. 5. To perform the solubility measurement, it was first necessary to establish known optical densities for a 1 μg/ml solution of each compound. These were determined by preparing either ethanolic or aqueous stocks of each compound at known concentrations in 1×TE, then measuring the optical density of each solution. From this information, the absorption of a 1 μg/ml solution was computed. Alternatively, the extinction coefficient may be thus determined and used in the same fashion. In this manner, the following absorption data was collected:
Following this step, undissolved compound was removed by filtration using a 0.2 u nylon-66 syringe filter (Arco LC13; Gelman). The concentration of the remaining soluble compound was then determined by measuring the optical density of the filtrate and computing the solubility from the known optical density of a 1 μg/ml solution of that compound. The solubility of the compounds was thus determined to be as follows: […]

calf thymus DNA = test: Covalent photobinding to calf thymus DNA (Example 38); format: binding; details: for actual concentration obtained empirically: nominal 100 μg/ml in calf thymus DNA/1×TE, counted after sitting overnight at room temperature
Method: FIG. 17 can again be referred to as a flow chart schematically showing the manner in which covalent binding was measured for the compounds synthesized by the methods of the present invention. ^3H-AMIP (3.1×10^5 cpm/μg), ^3H-AMDMIP (2.2×10^5 cpm/μg), and ^3H-MIP (2.1×10^5 cpm/μg) were added to 300 μl of calf thymus DNA (Sigma) in 1×TE buffer. All of the isopsoralen compounds were added at a nominal concentration of 100 μg/ml. However, actual concentrations obtained empirically (counted after sitting overnight at room temperature) were: ^3H-AMIP (105 μg/ml), ^3H-AMDMIP (115 μg/ml), and ^3H-MIP (<10 μg/ml).
To assess binding, three samples were prepared for each compound; two were irradiated (15 minutes at 25° C. with the CE-I device) while one was unirradiated as a control. Following irradiation, the samples were extracted four times with CHCl3 then precipitated twice. The final pellet was brought up in 2 ml of 1×TE buffer and resuspended by shaking at 40° C. overnight. 50 μl of each sample was then diluted to 0.5 mls with H2O. The concentration of DNA was determined by UV absorption (A260) and the amount of covalently bound isopsoralen (“adduct”) was determined by scintillation counting (3×100 μl aliquots). From these numbers, the following binding ratios (adducts: DNA base pair) were determined: […]

E. coli DNA Polymerase = test: Primer extension on monoadducted 71-mer, E. coli DNA polymerase; format: biochemical; details: 37° C., 0, 5 or 15 minutes
Klenow Polmerase = test: Primer extension on monoadducted 71-mer, Klenow polymerase; format: biochemical; details: 37° C., 0, 5 or 15 minutes
[2] = test system: 115-mer (SK-38/SK-39 HIV system); test: Sterilization sensitivity, 115-mer PCR product; format: biochemical; details: CE-III 15 minutes, 30 cycles
Excerpt: (§1) As discussed generally for sterilization, it is expected that the sensitivity of sterilization will depend upon both the modification density and the length of the PCR target sequences. In this experiment, the effect of modification density and target length on sterilization sensitivity were examined by sterilizing two different length PCR products with either AMIP or AMDMIP. Each isopsoralen was used at two different concentrations for the sterilization procedure to produce differing modification densities on PCR targets.
(§2) The two PCR targets used in these experiments were a 115-mer (SK-38/SK-39 HIV system) and a 500-mer. The 500-mer target is obtained from a PCR amplification of a lambda plasmid with primers PCR 01/02. This system is provided by Cetus/Perkin Elmer as a control in their commercial kits of PCR reagents (Catalogue No. N801-0055). For both of these systems equivalent copy numbers of each target were prepared in the following manner: An initial 30 cycle PCR reaction was carried out for each system with the appropriate primers and targets. Aliquots (approximately 10^5-10^6 target copies) of each of these reactions were transferred to a second set of PCR reactions. These second sets of PCR amplifications were carried out in the presence of α-32P-dCTP, again for 30 cycles. Aliquots of these reactions were removed and counted by liquid scintillation counting. With these numbers, the specific activity of the α-32P-dCTP, and the sequence of each of the PCR product oligonucleotides (115-mer and 500-mer), the concentrations of each of the two PCR product oligonucleotides in the second set of PCR reaction tubes was determined. Both the 115-mer and the 500-mer concentrations were then adjusted to exactly 1×10^−8M by the addition of additional Taq buffer. These stocks of equivalent copy number of PCR products were then used for further investigation. Each of the stock solutions then was subdivided into four reaction tubes. The reaction tubes were adjusted to contain the following: Tube 1, 100 μg/ml AMIP; Tube 2, 400 μg/ml AMIP; Tube 3, 100 μ/ml AMDMIP: and Tube 4, 400 μg/ml AMDMIP. Each of these samples were again split into two portions, one part being irradiated for 15 minutes at room temperature with the CE-III device and the other part kept in the dark. Serial dilutions of the irradiated and the unirradiated targets were then carried out on these samples for 30 cycles in the presence of α-32P-CTP. Aliquots of these samples were analyzed on denaturing polyacrylamide gels. The PCR product bands were visualized by autoradiography, cut, and counted in a liquid scintillation counter.

[3] = test system: 500-mer (lambda plasmid, primers PCR 01/02); test: Sterilization sensitivity, 500-mer PCR product; format: biochemical; details: CE-III 15 minutes, 30 cycles
Excerpt: as §1, §2

SMILES | Solubility in 1 × TE [1] | actual concentration obtained empirically (calf thymus DNA) [µg/mL] | block of primer extension by 71-mer monoadduct (E. coli DNA Polymerase) | block of primer extension by 71-mer monoadduct (Klenow Polmerase) | sterilization sensitivity (carryover sterilized) ([2]; 100 μg/ml) | sterilization sensitivity (carryover sterilized) ([2]; 400 μg/ml) | sterilization sensitivity (carryover sterilized) ([3]; 100 μg/ml) | sterilization sensitivity (carryover sterilized) ([3]; 400 μg/ml) | modification density relative to that provided by AMDMIP (calf thymus DNA; photobinding at the same concentration) [%]
Cc1oc2ccc3c(C)cc(=O)oc3c2c1CN [AMDMIP, 4′-Aminomethyl-4,5′-dimethylisopsoralen] | >22,700* ug/ml | 115 | complete stop | complete stop | better sterilization agent | ≥ 6×10^9 carryover molecules | ≥ 6×10^9 carryover molecules | no signal in the irradiated dilution series | –
NCc1cc2occc2c2oc(=O)ccc12 [AMIP, 5-Aminomethylisopsoralen] | 21,000 ug/ml | 105 | not complete stops | not complete stops | about 10,000 molecules of carryover | about 10^6 carryover molecules | more effectively sterilized than the 115-mer PCR product | ≥ 6×10^9 molecules of carryover | 43
Cc1cc2occc2c2oc(=O)ccc12 [MIP, 5-Methylisopsoralen] | nd (nd = not detectable (solubility was less than 1 μg/ml)) | < 10 | not complete stops | not complete stops | – | – | – | – | –
